Here are results for 45 compounds from patent US8778929B2, “Substituted heteroaryl inhibitors of B-RAF” (Boehringer Ingelheim International GmbH, priority 2008, dated 2014).

SMILES strings stand for the structures.

The target in this assay is B-Raf (V600E)-kinase (Homo sapiens, UniProt P15056, V600E). Kind of assay: Kinase test B-Raf (V600E). Format: biochemical. The conditions noted are these: 100% = no inhibition, 0% = total inhibition, read-out: % CTL (residual activity of the enzyme relative to DMSO control); for remaining activity at 2 µM: compound concentration 2 μM. The procedure:
In a dilution series 10 μL of test substance solution are placed in a multiwell plate. The dilution series is selected so that generally a range of concentrations of 2 μM to 0.119 nM or 0.017 nM is covered. If necessary the initial concentration of 2 μM is changed to 50 μM, 10 μM or 0.4 μM or 0.2857 μM and further dilution is carried out accordingly. The final concentration of DMSO is 5%. 10 μL of the B-Raf (V600E)-kinase solution are pipetted in (containing 0.5 ng B-Raf (V600E)-kinase in 20 mM Tris-HCl pH 7.5, 0.1 mM EDTA, 0.1 mM EGTA, 0.286 mM sodium orthovanadate, 10% glycerol, 1 mg/mL bovine serum albumin, 1 mM dithiothreitol) and the mixture is incubated for 1 h at RT under with shaking The kinase reaction is started by the addition of 20 μL ATP solution [final concentration: 250 μM ATP, 30 mM Tris-HCl pH 7.5, 0.02% Brij, 0.2 mM sodium orthovanadate, 10 mM magnesium acetate, 0.1 mM EGTA, phosphatase cocktail (Sigma, # P2850, dilution recommended by the manufacturer), 0.1 mM EGTA] and 10 μL MEK1 solution [containing 50 ng biotinylated MEK1 (prepared from purified MEK1 according to standard procedure, e.g. with EZ-Link Sulpho-NHS-LC-Biotin reagent, Pierce, # 21335) and carried out for 60 min at RT with constant shaking. The reaction is stopped by the addition of 12 μL of a 100 mM EDTA solution and incubation is continued for a further 5 min. 55 μL of the reaction solution are transferred into a streptavidin-coated plate (e.g. Streptawell HighBond, Roche, #11989685001) and shaken gently for 1 h at RT, in order to bind biotinylated MEK1 to the plate. After elimination of the liquid the plate is washed five times with 200 μL of 1×PBS and 100 μL solution of primary antibody plus europium-labelled secondary antibody [Anti Phospho-MEK (Ser217/221), Cell Signaling, # 9121 and Eu-N1 labeled goat-anti-rabbit antibody, Perkin Elmer, #AD0105], the primary antibody is diluted 1:2000 and the secondary antibody is diluted to 0.4-0.5 μg/mL in Delfia Assay Buffer (Perkin Elmer, #1244-111). After 1 h shaking at RT the solution is poured away and washed five times with 200 μL Delfia Wash Buffer (Perkin Elmer, #4010-0010/#1244-114). After the addition of 200 μL Enhancement Solution (Perkin Elmer, #4001-0010/#1244-105) the mixture is shaken for 10 min at RT and then measured in a Wallac Victor using the program “Delfia Time Resolved Fluorescence (Europium)”. IC50 values are obtained from these dosage-activity curves using a software program (GraphPadPrizm).
A value of 100% indicates no inhibition while a value of 0% indicates total inhibition. The % CTL values denote the residual activity of the enzyme after the addition of the inhibitory compound in the solvent DMSO in relation to the enzyme activity in the solvent DMSO without the addition of a compound (control). The values were determined using the B-Raf(V600E)-kinase test described above.

B-Raf (V600E)-kinase, sequence (P15056 whole entry V600E): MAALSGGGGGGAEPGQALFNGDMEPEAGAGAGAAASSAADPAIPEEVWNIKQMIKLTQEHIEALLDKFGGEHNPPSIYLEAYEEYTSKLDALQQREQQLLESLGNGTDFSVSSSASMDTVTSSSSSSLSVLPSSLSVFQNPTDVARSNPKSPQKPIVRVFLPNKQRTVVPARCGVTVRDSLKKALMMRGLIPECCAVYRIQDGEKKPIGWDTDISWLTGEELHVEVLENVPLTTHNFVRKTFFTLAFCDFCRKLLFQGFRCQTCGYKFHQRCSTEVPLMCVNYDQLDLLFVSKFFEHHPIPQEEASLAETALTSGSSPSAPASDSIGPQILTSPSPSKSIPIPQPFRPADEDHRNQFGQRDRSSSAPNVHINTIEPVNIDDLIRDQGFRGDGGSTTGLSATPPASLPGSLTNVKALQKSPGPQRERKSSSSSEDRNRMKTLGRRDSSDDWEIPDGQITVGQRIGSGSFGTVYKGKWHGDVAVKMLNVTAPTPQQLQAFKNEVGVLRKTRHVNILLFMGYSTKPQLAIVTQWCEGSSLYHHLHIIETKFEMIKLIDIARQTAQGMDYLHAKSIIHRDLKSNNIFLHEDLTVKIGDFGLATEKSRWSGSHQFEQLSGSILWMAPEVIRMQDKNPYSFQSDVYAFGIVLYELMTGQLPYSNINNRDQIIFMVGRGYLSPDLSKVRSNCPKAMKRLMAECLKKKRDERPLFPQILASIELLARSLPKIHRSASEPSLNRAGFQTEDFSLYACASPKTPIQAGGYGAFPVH

For the compound `Cc1ncc(C(=O)Nc2cc(CNC(C)C)c(Cl)c(C(F)(F)F)c2)cc1-n1cc(-c2cnn(C)c2C)nn1` [Example I-54], the remaining activity at 2 µM came out at 1.2%.

Turning to `Cc1ncc(C(=O)Nc2cc(CNCC(C)C)c(Cl)c(C(F)(F)F)c2)cc1-n1cc(-c2cnn(C)c2C)nn1` [Example I-55], the remaining activity at 2 µM is 1.2%.

Take `Cc1ncc(C(=O)Nc2cc(Br)c(C)c(C(F)(F)F)c2)cc1-n1cc(-c2cnn(C)c2C)nn1` [Example I-56]: the remaining activity at 2 µM came out at 1.4%.

Regarding `CCN1CCN(c2cc(NC(=O)c3cnc(C)c(-n4cc(-c5cnn(C)c5C)nn4)c3)cc(C(F)(F)F)c2C)CC1` [Example I-57], the remaining activity at 2 µM was 2.3%.

`Cc1ncc(C(=O)Nc2cc(N3CCN(C(C)C)CC3)cc(C(F)(F)F)c2)cc1-n1cc(-c2cnn(C)c2C)nn1` [Example I-58]: the remaining activity at 2 µM was 5.5%.

Take `CCN1CCN(c2cc(NC(=O)c3cnc(C)c(-n4cc(-c5cnn(C)c5C)nn4)c3)cc(C(F)(F)F)c2)CC1` [Example I-59]: the remaining activity at 2 µM is 13.4%.

For `Cc1ncc(C(=O)Nc2cc(N(C)CCN(C)C)cc(C(F)(F)F)c2)cc1-n1cc(-c2cnn(C)c2C)nn1` [Example I-60], the remaining activity at 2 µM was 7.2%.

Take `Cc1ncc(C(=O)Nc2cc(N3CCOCC3)c(C)c(C(F)(F)F)c2)cc1-n1cc(-c2cnn(C)c2C)nn1` [Example I-61]: the remaining activity at 2 µM turned out to be 8.1%.

Take `Cc1ncc(C(=O)Nc2cc(Br)cc(C(F)(F)F)c2)cc1-n1cc(-c2cnn(C)c2C)nn1` [Example I-62]: the remaining activity at 2 µM was 2.8%.

Consider `Cc1ncc(C(=O)Nc2cc(N3CC[C@H](N(C)C)C3)c(C)c(C(F)(F)F)c2)cc1-n1cc(-c2cnn(C)c2C)nn1` [Example I-63], for which the remaining activity at 2 µM stood at 4.6%.

Consider `COc1ccc(NC(=O)c2cnc(C)c(-n3cc(-c4cncnc4)nn3)c2)cc1C(F)(F)F` [Example I-64], for which the remaining activity at 2 µM is 6.6%.

With `Cc1ncc(C(=O)Nc2cc(N3CC[C@@H](N(C)C)C3)c(C)c(C(F)(F)F)c2)cc1-n1cc(-c2cnn(C)c2C)nn1` [Example I-65], the remaining activity at 2 µM turned out to be 7.1%.

Consider `Cc1ncc(C(=O)Nc2cc(N3CCCCC3)c(C)c(C(F)(F)F)c2)cc1-n1cc(-c2cnn(C)c2C)nn1` [Example I-66], for which the remaining activity at 2 µM was determined as 6.4%.

For `Cc1ncc(C(=O)Nc2cc(N3CCN(C)CC3)c(C)c(C(F)(F)F)c2)cc1-n1cc(-c2cncnc2)nn1` [Example I-67], the remaining activity at 2 µM was found to be 2.9%.

`CCNc1cc(NC(=O)c2cnc(C)c(-n3cc(-c4cnn(C)c4C)nn3)c2)cc(C(F)(F)F)c1C` [Example I-68]: the remaining activity at 2 µM was 4.7%.

For `Cc1ncc(C(=O)Nc2cc(N3CCOCC3)cc(C(F)(F)F)c2)cc1-n1cc(-c2cnn(C)c2C)nn1` [Example I-69], the remaining activity at 2 µM turned out to be 2.8%.

As to `Cc1ncc(C(=O)Nc2cc(N(C)CCN(C)C)c(C)c(C(F)(F)F)c2)cc1-n1cc(-c2cnn(C)c2C)nn1` [Example I-71], the remaining activity at 2 µM was determined as 5.5%.

Turning to `Cc1ncc(C(=O)Nc2cc(CN3CCCC3)cc(C(F)(F)F)c2)cc1-n1cc(-c2cncnc2)nn1` [Example I-72], the remaining activity at 2 µM amounted to 5.1%.

On to `CCN(CC)c1cc(NC(=O)c2cnc(C)c(-n3cc(-c4cnn(C)c4C)nn3)c2)cc(C(F)(F)F)c1` [Example I-73], for which the remaining activity at 2 µM stood at 1.7%.

For `Cc1ncc(C(=O)Nc2cc(N3CCCCC3)cc(C(F)(F)F)c2)cc1-n1cc(-c2cnn(C)c2C)nn1` [Example I-74], the remaining activity at 2 µM is 9%.

With `CCNc1cc(NC(=O)c2cnc(C)c(-n3cc(-c4cnn(C)c4C)nn3)c2)cc(C(F)(F)F)c1` [Example I-75], the remaining activity at 2 µM stood at 7.3%.

As for `Cc1ncc(C(=O)Nc2cc(N3CC[C@@H](N(C)C)C3)cc(C(F)(F)F)c2)cc1-n1cc(-c2cnn(C)c2C)nn1` [Example I-76], the remaining activity at 1.43 µM (measurement at 1.43 μM (***)) was 2%.

In the case of `Cc1ncc(C(=O)Nc2cc(N3CC[C@H](N(C)C)C3)cc(C(F)(F)F)c2)cc1-n1cc(-c2cnn(C)c2C)nn1` [Example I-77], the remaining activity at 2 µM stood at 1.9%.

In the case of `Cc1ncc(C(=O)Nc2cc(NCCN(C)C)cc(C(F)(F)F)c2)cc1-n1cc(-c2cnn(C)c2C)nn1` [Example I-78], the remaining activity at 2 µM worked out at 2.8%.

Turning to `Cc1cn(-c2cc(NC(=O)c3cnc(C)c(-n4cc(-c5cncnc5)nn4)c3)cc(C(F)(F)F)c2)cn1` [Example I-79], the remaining activity at 2 µM is 3.6%.

As for `Cc1ncc(C(=O)Nc2cc(C(C)(C)C)on2)cc1-n1cc(-c2cccnc2)nn1` [Example I-80], the remaining activity at 2 µM stood at 1.9%.

In the case of `Cc1ncc(C(=O)Nc2cc(C(F)(F)F)ccn2)cc1-n1cc(-c2cncs2)nn1` [Example I-81], the remaining activity at 2 µM turned out to be 1.2%.

In the case of `Cc1ncc(C(=O)Nc2cc(C(C)(C)C)on2)cc1-n1cc(-c2cncs2)nn1` [Example I-82], the remaining activity at 2 µM was determined as 1.6%.

As for `Cc1ncc(C(=O)Nc2cc(C(C)(C)C)n[nH]2)cc1-n1cc(-c2cncs2)nn1` [Example I-83], the remaining activity at 2 µM amounted to 1.1%.

As to `COc1cncc(-c2cn(-c3cc(C(=O)Nc4cc(C(C)(C)C)n[nH]4)cnc3C)nn2)c1` [Example I-84], the remaining activity at 2 µM was 2.4%.

`COc1cncc(-c2cn(-c3cc(C(=O)Nc4cc(OC(F)(F)F)cc(N5CCN(C)CC5)c4)cnc3C)nn2)c1` [Example I-85]: the remaining activity at 2 µM was 1.1%.

Take `Cc1ncc(C(=O)Nc2cc(C3CCN(C)CC3)cc(C(F)(F)F)c2)cc1-n1cc(-c2cnn(C)c2C)nn1` [Example I-86]: the remaining activity at 2 µM came out at 1.4%.

In the case of `Cc1ncc(C(=O)Nc2cc(C3=CCN(C)CC3)cc(C(F)(F)F)c2)cc1-n1cc(-c2cnn(C)c2C)nn1` [Example I-87], the remaining activity at 2 µM amounted to 1.7%.

On to `Cc1ncc(C(=O)Nc2cc(C3=CCNCC3)cc(C(F)(F)F)c2)cc1-n1cc(-c2cnn(C)c2C)nn1` [Example I-88], for which the remaining activity at 2 µM amounted to 1.3%.

As to `COc1ccc(NC(=O)c2cnc(C)c(-n3cc(-c4cncs4)nn3)c2)cc1C(F)(F)F` [Example I-89], the remaining activity at 2 µM stood at 1.5%.

Turning to `COc1cncc(-c2cn(-c3cc(C(=O)Nc4cc(CN5CCCC5)c(Cl)c(C(F)(F)F)c4)cnc3C)nn2)c1` [Example I-90], the remaining activity at 2 µM worked out at 2.1%.

On to `COc1cncc(-c2cn(-c3cc(C(=O)Nc4cc(CN5CCCC5)cc(C(F)(F)F)c4)cnc3C)nn2)c1` [Example I-91], for which the remaining activity at 2 µM came out at 2.5%.

`COc1cncc(-c2cn(-c3cc(C(=O)Nc4ccc(OC)c(C(F)(F)F)c4)cnc3C)nn2)c1` [Example I-92]: the remaining activity at 2 µM amounted to 2.5%.

Take `Cc1ncc(C(=O)Nc2cc(CN(C)C)c(C)c(C(F)(F)F)c2)cc1-n1cc(-c2cnn(C)c2C)nn1` [Example I-93]: the remaining activity at 2 µM turned out to be 3.5%.

Regarding `COCCN(C)Cc1cc(NC(=O)c2cnc(C)c(-n3cc(-c4cnn(C)c4C)nn3)c2)cc(C(F)(F)F)c1C` [Example I-94], the remaining activity at 2 µM worked out at 3.5%.

As for `COc1c(CNCC(C)C)cc(NC(=O)c2cnc(C)c(-n3cc(-c4cnn(C)c4C)nn3)c2)cc1C(F)(F)F` [Example I-95], the remaining activity at 2 µM worked out at 3.1%.

Regarding `COCCN(C)Cc1cc(NC(=O)c2cnc(C)c(-n3cc(-c4cnn(C)c4C)nn3)c2)cc(C(F)(F)F)c1OC` [Example I-96], the remaining activity at 2 µM worked out at 3.4%.

On to `CCN1CC=C(c2cc(NC(=O)c3cnc(C)c(-n4cc(-c5cnn(C)c5C)nn4)c3)cc(C(F)(F)F)c2C)CC1` [Example I-97], for which the remaining activity at 2 µM worked out at 3.3%.

Turning to `Cc1ncc(C(=O)Nc2cc(C3=CCN(CC4CC4)CC3)c(C)c(C(F)(F)F)c2)cc1-n1cc(-c2cnn(C)c2C)nn1` [Example I-98], the remaining activity at 2 µM was determined as 3%.

On to `CCC(C)N1CC=C(c2cc(NC(=O)c3cnc(C)c(-n4cc(-c5cnn(C)c5C)nn4)c3)cc(C(F)(F)F)c2C)CC1` (stereo not drawn) [Example I-99], for which the remaining activity at 2 µM is 1.9%.
